Source: ChEMBL document CHEMBL3297726, “Isolation and structure elucidation of cystargamide, a lipopeptide from Kitasatospora cystarginea” (J Nat Prod, 2014)
Calls of active or inactive are those of the source. Positions of bridges follow the written chain, without caps; N, C: chain ends. Non-standard residues stand in square brackets, D forms with d. Residues, ends and D or L forms follow the SMILES beside them. *: point of attachment. Trp(5-OH) = N[C@@H](Cc1c[nH]c2ccc(O)cc12)C(=O)O; Hpg = N[C@H](C(=O)O)c1ccc(O)cc1; X1 = CCCCCCCC1OC1C(=O)*

Experiments:
Format in all cases: functional, organism-based
Candida albicans = test: Antimicrobial activity against Candida albicans ATCC 14035 assessed as growth inhibition at 128 ug/ml
Staphylococcus aureus = test: Antimicrobial activity against methicillin-resistant Staphylococcus aureus ATCC 33591 assessed as growth inhibition at 128 ug/ml
Enterococcus faecium = test: Antimicrobial activity against vancomycin-resistant Enterococcus faecium EF379 assessed as growth inhibition at 128 ug/ml
Staphylococcus warneri = test: Antimicrobial activity against Staphylococcus warneri ATCC 17917 assessed as growth inhibition at 128 ug/ml

Measured: growth inhibition (GI)

CCCCCCCC1OC1C(=O)N[C@@H]1C(=O)N[C@@H](Cc2ccccc2)C(=O)N[C@@H](CCC(=O)O)C(=O)N[C@@H](Cc2c[nH]c3ccc(O)cc23)C(=O)N[C@@H](c2ccc(O)cc2)C(=O)NCC(=O)O[C@@H]1C (some centres undefined) (X1-TFE[Trp(5-OH)][Hpg]G; ester 1-C)
inactive: all assays above
